Experimental data from ChEMBL document CHEMBL4831514, “Novel betulin dicarboxylic acid ester derivatives as potent antiviral agents: Design, synthesis, biological evaluation, structure-activity relationship and in-silico study” (Eur J Med Chem, 2021).
Activity calls are given as the source filed them. The calls are words filed in the database; no cut-off is given here.

Assays:
[1] = tested on: Vesicular stomatitis virus; assay: Antiviral activity against Vesicular stomatitis virus Indiana infected in A549 cells assessed as reduction in virus titer preincubated for 24 hrs followed by viral infection and measured after 72 hrs by microscopic analysis; type: functional, organism-based
Human adenovirus 5 [2] = assay: Antiviral activity against Human adenovirus 5 Adenoid 75 infected in A549 cells assessed as inhibition of viral adsorption at early stage of replication treated for 1 hr during viral infection followed by replacement with fresh medium and measured after 72 hrs by MTT assay; type: functional, organism-based
Enterovirus E [3] = assay: Antiviral activity against Enterovirus E LCR-4 infected in A549 cells assessed as inhibition of viral adsorption at early stage of replication treated for 1 hr during viral infection followed by replacement with fresh medium and measured after 72 hrs by MTT assay; type: functional, organism-based
Human adenovirus 5 [4] = assay: Antiviral activity against Human adenovirus 5 Adenoid 75 infected in A549 cells assessed as reduction in virus titer preincubated for 24 hrs followed by viral infection and measured after 72 hrs by microscopic analysis; type: functional, organism-based
Human alphaherpesvirus 1 [5] = assay: Antiviral activity against Human herpesvirus 1 MacIntyre infected in A549 cells assessed as reduction in virus titer preincubated for 24 hrs followed by viral infection and measured after 72 hrs by microscopic analysis; type: functional, organism-based
A549 = assay: (§1) Cytotoxicity against human A549 cells assessed as reduction in cell viability incubated for 48 hrs by MTT assay; type: cell-based; conditions: a549, 48 h
Human alphaherpesvirus 1 [6] = assay: Antiviral activity against Human herpesvirus-1 MacIntyre infected in A549 cells assessed as inhibition of viral adsorption at early stage of replication treated for 1 hr during viral infection followed by replacement with fresh medium and measured after 48 hrs by MTT assay; type: functional, organism-based
MDCK = assay: (§2) Cytotoxicity against MDCK cells assessed as reduction in cell viability incubated for 72 hrs by MTT assay; type: cell-based, Canis lupus familiaris; conditions: dog, mdck, 72 h
[7] = as §2; type: cell-based, Canis lupus familiaris; conditions: dog, MDCK cells
Enterovirus E [8] = assay: Potency index, ratio of […] EC50 to test compound EC50 for antiviral activity against Enterovirus E LCR-4 infected in A549 cells assessed as reduction in virus titer preincubated for 24 hrs followed by viral infection and measured after 72 hrs by microscopic analysis; type: functional; conditions: time 96 hrs
[9] = as §1; type: cell-based; conditions: A549 cells
[10] = Selectivity index, ratio of CC50 for cytotoxicity against human A549 cells to EC50 for antiviral activity against Enterovirus E LCR-4 infected in A549 cells; type: toxicity, cell-based; conditions: read-out: Selectivity Index
Enterovirus E [11] = assay: Antiviral activity against Enterovirus E LCR-4 infected in A549 cells assessed as reduction in virus titer preincubated for 24 hrs followed by viral infection and measured after 72 hrs by microscopic analysis; type: functional, organism-based; conditions: LCR-4, A549
Enterovirus E [12] = assay: Potency index, ratio of ribavirin EC50 to test compound EC50 for antiviral activity against Enterovirus E LCR-4 infected in A549 cells assessed as reduction in virus titer treated 1 hr post viral infection followed by replacement with fresh medium with compounds and measured after 72 hrs by MTT assay; type: functional
[13] = Selectivity index, ratio of CC50 for cytotoxicity against human A549 cells to EC50 for antiviral activity against Enterovirus E LCR-4 infected in A549 cells assessed as reduction in virus titer treated 1 hr post viral infection followed by replacement with fresh medium with compounds and measured after 72 hrs by MTT assay; type: toxicity, cell-based; conditions: read-out: Selectivity Index
Enterovirus E [14] = assay: Antiviral activity against Enterovirus E LCR-4 infected in A549 cells assessed as reduction in virus titer treated 1 hr post viral infection followed by replacement with fresh medium with compounds and measured after 72 hrs by MTT assay; type: functional, organism-based; conditions: LCR-4, A549
[15] = Selectivity index, ratio of CC50 for cytotoxicity against human A549 cells to EC50 for antiviral activity against Human herpesvirus 1 MacIntyre infected in A549 cells assessed as reduction in virus titer treated 1 hr post viral infection followed by replacement with fresh medium with compounds and measured after 72 hrs by MTT assay; type: toxicity, cell-based; conditions: read-out: Selectivity Index
Human alphaherpesvirus 1 [16] = assay: Antiviral activity against Human herpesvirus 1 MacIntyre infected in A549 cells assessed as reduction in virus titer treated 1 hr post viral infection followed by replacement with fresh medium with compounds and measured after 48 hrs by MTT assay; type: functional, organism-based; conditions: Human alphaherpesvirus 1, MacIntyre
Human alphaherpesvirus 1 [17] = assay: Potency index, ratio of acyclovir EC50 to test compound EC50 for antiviral activity against Human herpesvirus 1 MacIntyre infected in A549 cells assessed as reduction in virus titer treated 1 hr post viral infection followed by replacement with fresh medium with compounds and measured after 48 hrs by MTT assay; type: functional

Structure (SMILES) | Activity [1] | Activity (Human adenovirus 5 [2]) | Activity (Enterovirus E [3]) | Activity (Human adenovirus 5 [4]) | Activity (Human alphaherpesvirus 1 [5]) | CC20 (A549) | Activity (Human alphaherpesvirus 1 [6]) | CC20 (MDCK) | CC50 at 72 h [7] | Ratio EC50 (Enterovirus E [8]) | CC50 at 48 h [9] | selectivity ratio [10] | EC50 (Enterovirus E [11]) | Ratio EC50 (Enterovirus E [12]) | selectivity ratio at 72 h [13] | EC50 (Enterovirus E [14]) | selectivity ratio at 72 h [15] | EC50 (Human alphaherpesvirus 1 [16]) | Ratio EC50 (Human alphaherpesvirus 1 [17])
C=C(C)[C@@H]1CC[C@]2(COC(=O)CSCC(=O)O)CC[C@]3(C)[C@H](CC[C@@H]4[C@@]5(C)CC[C@H](O)C(C)(C)[C@@H]5CC[C@]43C)[C@@H]12 | inactive | inactive | inactive | inactive | inactive | 21.08 µM | inactive | 21.08 µM | 42.2 µM |  |  |  |  |  |  |  |  |  | 
C#CC1(NC(=O)/C(C)=C/C(=O)OC[C@]23CC[C@@H](C(=C)C)[C@@H]2[C@H]2CC[C@@H]4[C@@]5(C)CC[C@H](O)C(C)(C)[C@@H]5CC[C@@]4(C)[C@]2(C)CC3)CCCCC1 | inactive | inactive | inactive | inactive | inactive | 54.47 µM | inactive | 54.47 µM | 54.5 µM |  |  |  |  |  |  |  |  |  | 
C=C(C)[C@@H]1CC[C@]2(COC(=O)c3cccc(C(=O)N4CCCCC4)c3)CC[C@]3(C)[C@H](CC[C@@H]4[C@@]5(C)CC[C@H](O)C(C)(C)[C@@H]5CC[C@]43C)[C@@H]12 | inactive | inactive | inactive | inactive | inactive | 130.89 µM | inactive | 130.89 µM |  | 3 | 536 µM | 8.2 | 65.4 µM |  |  |  |  |  | 
C=C(C)[C@@H]1CC[C@]2(COC(=O)/C=C(\C)C(=O)N3CCOCC3)CC[C@]3(C)[C@H](CC[C@@H]4[C@@]5(C)CC[C@H](O)C(C)(C)[C@@H]5CC[C@]43C)[C@@H]12 | inactive | inactive | inactive | inactive | inactive | 37.82 µM | inactive | 37.82 µM |  |  | 114 µM |  |  | 3 | 3 | 37.8 µM |  |  | 
Nc1nc2c(ncn2COCCO)c(=O)[nH]1 [ACYCLOVIR] |  | inactive | inactive |  |  | 196.08 µM | inactive |  |  |  | 1560 µM | 7 |  |  |  |  | 14 | 111 µM | 
CCOC(=O)C1=C[C@@H](OC(CC)CC)[C@H](NC(C)=O)[C@@H](N)C1 [OSELTAMIVIR] |  |  |  |  |  |  |  | 320.51 µM | 7870 µM |  |  |  |  |  |  |  |  |  | 
C=C(C)[C@@H]1CC[C@]2(COC(=O)CCCCCCCCCC(=O)N3CCOCC3)CC[C@]3(C)[C@H](CC[C@@H]4[C@@]5(C)CC[C@H](O)C(C)(C)[C@@H]5CC[C@]43C)[C@@H]12 | inactive | inactive | inactive | inactive | inactive | 34.77 µM | inactive | 139.08 µM |  |  | 164 µM |  |  |  |  |  | 4.7 | 34.8 µM | 3
C=C(C)[C@@H]1CC[C@]2(COC(=O)CCCC(=O)O)CC[C@]3(C)[C@H](CC[C@@H]4[C@@]5(C)CC[C@H](O)C(C)(C)[C@@H]5CC[C@]43C)[C@@H]12 | inactive | inactive | inactive | inactive | inactive | 22.44 µM | inactive | 11.22 µM |  |  | 80.8 µM |  |  |  |  |  | 3.6 | 22.4 µM | 3
C=C(C)[C@@H]1CC[C@]2(COC(=O)c3ccccc3C(=O)N3CCOCC3)CC[C@]3(C)[C@H](CC[C@@H]4[C@@]5(C)CC[C@H](O)C(C)(C)[C@@H]5CC[C@]43C)[C@@H]12 | inactive | inactive | inactive | inactive | inactive | 35.87 µM | inactive | 143.47 µM |  |  | 144 µM |  |  |  |  |  | 4 | 35.9 µM | 3
C#CCNC(=O)c1ccccc1C(=O)OC[C@]12CC[C@@H](C(=C)C)[C@@H]1[C@H]1CC[C@@H]3[C@@]4(C)CC[C@H](O)C(C)(C)[C@@H]4CC[C@@]3(C)[C@]1(C)CC2 | inactive | inactive | inactive | inactive | inactive | 39.81 µM | inactive | 159.24 µM |  | 11 | 159 µM | 8 | 19.9 µM |  |  |  |  |  | 
NC(=O)c1ncn([C@@H]2O[C@H](CO)[C@@H](O)[C@H]2O)n1 [RIBAVIRIN] |  | inactive | inactive |  |  | 409.84 µM | inactive |  |  |  | 7610 µM |  |  |  | 74.3 | 102 µM |  |  | 
C=C(C)[C@@H]1CC[C@]2(COC(=O)/C=C(\C)C(=O)N3CCCCC3)CC[C@]3(C)[C@H](CC[C@@H]4[C@@]5(C)CC[C@H](O)C(C)(C)[C@@H]5CC[C@]43C)[C@@H]12 | inactive | inactive | inactive | inactive | inactive | 34.34 µM | inactive | 4.26 µM |  |  | 68.7 µM |  |  |  |  |  | 4 | 17.2 µM | 3
